This experiment deals with HA‐SlCaM3/4/5. The format is binding, tomato (Solanum lycopersicum).

Take EDTA: the “effect on GFP-SFI5/HA-SlCaM3/4/5 association” value (“effect” below) was “significantly inhibited by the presence of CaM antagonist and Ca^2+ channel blockers”. As to LaCl3, the “effect” value was “significantly inhibited by the presence of CaM antagonist and Ca^2+ channel blockers”. As for `NCCCCCCNS(=O)(=O)c1cccc2c(Cl)cccc12` [Peptide W7, N‐(6‐aminohexyl)‐5‐chloro‐1‐naphthalene‐sulphonamide], the “effect” value is “significantly inhibited by the presence of CaM antagonist and Ca^2+ channel blockers”.

The values are drawn from article PMC6099356 (The New Phytologist, 2018).
